Data: patent publication US10407463B2, “Method for producing alpha-form crystal of reduced glutathione, and method for storing said crystal” (KYOWA HAKKO BIO CO., LTD., priority 2015, dated 2019)
Marks after values point to notes of the source that are not given here. One block for each compound: values may come before it. Peptide text beside a SMILES is read from it.

Legend:
[1] = Concentration crystallization of reduced glutathione with 10 wt % habit modifier, production method (2) (Example 6); format: physicochemical; settings: 10 wt % added; concentrate cooled to 25° C., stirred 24 hr; microscopic observation
Protocol: (§1) Reduced glutathione (50 g) and water (500 mL) were added to a 1 L beaker. […] The prepared solution (filtrate) was concentrated by an evaporator such that the concentration of reduced glutathione was not less than the saturation solubility of α-form crystal to perform concentration crystallization of reduced glutathione.

[2] = Suppression of transition to β-form crystal by habit modifier in α-form crystal slurry (Example 1); format: physicochemical; settings: 0.45 g added to 9 g α-form crystals in 30 mL water; 25° C., 24 hr; microscopic observation
Protocol: α-Form crystals of reduced glutathione (9 g) and water (30 mL) were mixed in a glass bottle. […] The glass bottle was shaken in a tray dryer set to 25° C. for 24 hr.

[3] = not told
Description: The crystals precipitated during stirring are observed under a microscope, and it is judged whether the crystals are all α-form crystals or development of β-form crystal or transition to β-form crystal has occurred. Since the shape of α-form crystal, which is a large columnar crystal, is markedly different from that of β-form crystal, which is a small needle crystal, they can easily be distinguished by microscopic observation. […] The permeability can be expressed by permeability (T %) 430 nm=100×10^−A (A=Abs: 430 nm, 1 cm). When β-form crystal having low solubility is present, the permeability of the solution is lowered since the crystals left undissolved are detected as turbidity. Since the development of β-form crystal causes crystallization and a lower concentration of reduced glutathione in the solution in the slurry than that of a solution containing α-form crystal alone, the kind of the coexisting crystals can also be distinguished by measuring the concentration of reduced glutathione in the mother liquor from which the coexisting crystals have been removed. The concentration of reduced glutathione in the mother liquor is measured by removing the coexisting crystals by filtration and the like, diluting same with mobile phase to a given concentration, maintaining with stirring for a sufficient time, and measuring the concentration under the following HPLC conditions.
After 3 hr, the crystals (each 1 g) were dissolved in water (10 mL) at 25° C., the permeability at 430 nm was measured, and the turbidity was confirmed to determine the presence or absence of transition to β-form crystal.

[4] = Concentration crystallization of reduced glutathione with habit modifier, production method (1) (Example 5); format: physicochemical; settings: 2.5 g added to 50 g reduced glutathione; concentrate cooled to 25° C., stirred 24 hr; microscopic observation
Protocol: as §1

[5] = Amount of habit modifier needed to suppress β-form crystal development in aqueous reduced glutathione solution (Example 4); format: physicochemical; settings: 10° C.
Description: The results of the elapsed time and changes in the concentration of reduced glutathione due to the presence or absence of a habit modifier are shown in Table 3.

[6] = at 10° C., in water
Description: The crystal of reduced glutathione includes two kinds of crystal polymorphs of α-form crystal and β-form crystal (non-patent document 1). […] Therefore, the β-form crystal having low solubility is associated with problems that it is difficult to process as a raw material and cannot be handled with ease.

Structure (SMILES): N[C@@H](Cc1c[nH]c2ccccc12)C(=O)O [L-Trp, L-tryptophan]
transition of α-form crystal to β-form crystal [2]: suppression of the transition
permeability (%) [3]: 99%

Structure (SMILES): N[C@@H](CCC(=O)N[C@@H](CS)C(=O)NCC(=O)O)C(=O)O [α-form crystal, reduced glutathione]
saturated solubility [6]: 89 mg/mL

Structure (SMILES): N[C@@H](CCC(=O)N[C@@H](CS)C(=O)NCC(=O)O)C(=O)O [β-form crystal, reduced glutathione]
saturated solubility [6]: 30 mg/mL

Structure (SMILES): N[C@@H](Cc1ccccc1)C(=O)O [L-Phe, L-phenylalanine]
transition of α-form crystal to β-form crystal [2]: suppression of the transition
permeability (%) [3]: 100%

Next, values leading:

crystal form produced [1]: produced α-form crystal alone
transition of α-form crystal to β-form crystal [2]: suppression of the transition
permeability (%) [3]: 100%
crystal form produced [4]: produced α-form crystal alone
Structure (SMILES): N[C@@H](CS)C(=O)O [L-Cys, L-cysteine]

permeability (%) [3]: 95%
Structure (SMILES): Cl.N[C@@H](Cc1c[nH]cn1)C(=O)O [L-His, L-histidine hydrochloride, reference compound]

transition of α-form crystal to β-form crystal [2]: suppression of the transition
permeability (%) [3]: 99%
Structure (SMILES): C[C@H](N)C(=O)N[C@@H](CS)C(=O)O [AlaCys, L-alanyl-L-cysteine] (H-Ala-Cys-OH)

transition of α-form crystal to β-form crystal [2]: suppression of the transition
Structure (SMILES): O=C(O)[C@H]1CCCN1 [D-Pro, D-proline]

crystal form produced [1]: produced α-form crystal alone
transition of α-form crystal to β-form crystal [2]: suppression of the transition
permeability (%) [3]: 100%
development of β-form crystal ([5]; 0.01 wt %-1 wt % added, 15 hr): suppressed development of β-form crystal
concentration (g/L) of reduced glutathione ([5]; amount added 0.01%, elapsed time 0 h): 94.2* g/L
concentration (g/L) of reduced glutathione ([5]; amount added 0.01%, elapsed time 15 h): 89.2* g/L
concentration (g/L) of reduced glutathione ([5]; amount added 0.1%, elapsed time 0 h): 94.2* g/L
concentration (g/L) of reduced glutathione ([5]; amount added 0.1%, elapsed time 15 h): 91.2* g/L
concentration (g/L) of reduced glutathione ([5]; amount added 1.0%, elapsed time 0 h): 94.2* g/L
concentration (g/L) of reduced glutathione ([5]; amount added 1.0%, elapsed time 15 h): 92.6* g/L
crystal form produced [4]: produced α-form crystal alone
Structure (SMILES): C[C@H](N)C(=O)O [L-Ala, L-alanine]
